Literature values, collected in patent US5843713A, “Peptide sequence that forms mucin sugar chain and technique for modifying protein to be linked with mucin sugar chain” (Kirin Beer Kabushiki Kaisha, priority 1994, dated 1998).

Assays:
[1] = tested on: crude enzyme solution of O-GalNAc T extracted from human breast cancer cells MCF7; conditions: literature, J. Biol. Chem. Vol.269 (1994)
[2] = tested on: O-GalNAc T derived from swine submaxillary gland; conditions: literature, Biochemistry Vol.18 (1979)

## PDTRAPPGS [literature peptide analogous to repetitive region of human mucin MUC1]
[1]
  transfer of GalNAc: no transfer of GalNAc is observed

## PDTRPAPGS [literature peptide analogous to repetitive region of human mucin MUC1]
[1]
  transfer of GalNAc: no transfer of GalNAc is observed

## PDTRPPAGS [literature peptide analogous to repetitive region of human mucin MUC1]
[1]
  transfer of GalNAc: no transfer of GalNAc is observed

## PRTPPP: literature peptide derived from bovine myelin basic protein
[2]
  GalNAc acceptor activity: highly active GalNAc acceptors

## TPPP: literature peptide derived from bovine myelin basic protein (RTPPP)
[2]
  GalNAc acceptor activity: highly active GalNAc acceptors

## TPRTPPP [literature peptide derived from bovine myelin basic protein]
[2]
  GalNAc acceptor activity: highly active GalNAc acceptors
